For this data set the following is noted: reservoir patch, drug at saturation, cladribine in ethanol/DMSO (50/50), entinostat in ethanol/water (2/1), human cadaver epidermis.

Results on 1 compound are retold here after US10434090B2, “Pharmaceutical composition containing a hypomethylating agent and a histone deacetylase inhibitor” (NIMBLE EPITECH, LLC, priority 2009, dated 2019).

The structures appear in SMILES notation.

Method: A feasibility study of transdermal delivery of cladribine and HDAC inhibitors was conducted using the Franz Cell Method. The scope of the ongoing study is to determine the passive transdermal diffusion rate (passive perfusion) of cladribine and multiple HDAC inhibitors for creation of continuous transdermal delivery for induction therapy.
Cladribine was mixed with about 2 percent of a concentration of a thickener comprising a cellulose component to thicken the cladribine composition.
All testing was performed in an incubator at 32 degrees Celsius.
Round pieces of human cadaveric skin were cut out. The patches were placed on top of the skin and mounted in the Franz Cells between the donor compartment and the receiver compartments of the cell. The two compartments were tightened together with a screw-on pinch clamp.
The results of transdermal flux were graphed as a function of time.

Turning to `Nc1nc(Cl)nc2c1ncn2[C@H]1C[C@H](O)[C@@H](CO)O1` [Cladribine], the “lag time before sustained transdermal delivery” value amounted to 10 h. This compound showed an optimum transdermal flux (32 degrees Celsius, 24 hour) of 170 μg/cm^2/day.
